Legend:
[1] = system: LEW-1W donor transplanted rat hearts; experiment: Heart transplantation model, LEW-1W rats as donor, LEW-1A as recipient, oral administration; type: in vivo; conditions: oral 500 mg/kg/day, four weeks; n=24
Procedure: a) Heart Transplantation Animal Model with LEW-1W Rats as Donor, LEW-1a as Recipient:
LEW-1W rats were used as donors; donors hearts after being isolated were preserved in saline at 0-4° C. […] The donor's aorta and the recipient's abdominal aorta were sutured up with 8-0 Prolene vascular threads, and the donor's pulmonary artery and the recipient's vena cava were sutured up with 8-0 Prolene vascular threads. When blood vessels were opened, the rat's heart would immediately resume beating, (please see Guillonneau C, Hill M, Hubert F X, Chiffoleau E, Hervé C, Xian-Liang Li, et al. CD40Ig treatment results in allograft acceptence mediated by CD8+CD45RClow T cells, IFN-γ and indoleamine 2,3 dioxygenase. Journal Clinical Investagtion. 2007; 117 (4): 1096-1106).
Observation parameters: after the abdomen was closed, palpation was used to check the beating of a transplanted rat heart, to determine graft survival period. That transplanted heart stops beating within 3 weeks was considered as having acute rejection, that transplanted heart stops beating after one month was considered as having chronic rejection, and that transplanted heart beats normally for more than three months was considered as having immune tolerance. […]

[2] = after oral administration, cited from earlier work
[3] = system: BN donor transplanted rat hearts; experiment: Heart transplantation model, BN rats as donor, LEW-1A rats as recipient, oral administration; type: in vivo; conditions: oral 500 mg/kg/day, four weeks; n=6
Procedure: b) Heart Transplantation Animal Model with BN Rats as Donor and LEW-1A Rats as Recipient:
BN rats were used as donors; donors hearts after being isolated were preserved in saline at 0-4° C. […] The donor's aorta and the recipient's abdominal aorta were sutured up with 8-0 Prolene vascular threads, and the donor's pulmonary artery and the recipient's vena cava were sutured up with 8-OProlene vascular threads. When blood vessels were opened, the rat's heart would immediately resume beating.
Observation parameters: after the abdomen was closed, palpation was used to check the beating of a transplanted rat heart, to determine graft survival period. That transplanted heart stops beating within 3 weeks was considered as having acute rejection, that transplanted heart stops beating after one month was considered as having chronic rejection, and that transplanted heart beats normally for more than three months was considered as having immune tolerance.
Experiment Methods: 12 rats from the experiment model established by method b) BN rats as donors and LEW-1A rats as recipients were used and divided into study and control groups, 6 rats for each group. […]

[4] = system: CD4+ effector cells; experiment: Mixed lymphocyte culture, CFSE proliferation of effector cells by flow cytometry; type: cell-based, rat; conditions: 4 days culture
From the text: Experiment method: From bodies of untreated rats (LEW-1A rats in Example 1), splenocytes were extracted according to the splenocytes extraction method described in Section 2.2.1. Splenocytes were fluorescence-labeled for TCR, CD4 and CD25, and by flow cytometry cell sorter TCR+CD4+CD25−cells were collected as CD4+ effector cells. Splenocytes after the removal of T-lymphocytes (TCR+cells), B cell lymphocytes (CD45R+cells) and NK cells (3.2.3+cells) by immuno-magnetic beads, were marked using fluorescent antibodies for TCR, CD11c and CD123 (antibody concentration was 5-10 μg/ml). By flow cytometry cell sorter, TCR-CD11c−CD123+cells were collected as pDC, and TCR-CD11c+CD123−cells were collected as mDC.
Well separated CD4+ effector cells and pDC or mDC and defined regulatory cells, respectively in a proportion of 4/4/1 were added into a 96-well culture plate, 200 ul culture medium was added and they were cultured in a 5% CO2 incubator at 37 degrees Celsius for 4 days. During the cultivation, cinnamoyl anthranilic acid (1.2-150 μmol) or control DMSO solvent was added. Cells were stain labeled after the four days, and the proliferation of effector cells was analyzed by a flow cytometer.
CD4+ effector cells before the mixed culture were marked by living organism dye CFSE (10*6 cells/ml in 5 μM CFSE). Labeled CD4+ effector cells were added to a mixed lymphocyte cultivation test, were marked again using fluorescent antibodies (TCR, CD4) after four days, and then were analyzed by a flow cytometer (TCR+CD4+gate) for effector cell proliferation.
Cinnamoyl anthranilic acid was added in different concentrations (150 μM, 75 μM, 37.5 μM, 18.7 μM, 9.35 μM, 4.7 μM, 2.35 μM, 1.2 μM). Cell stain labeling was conducted after 4 days of the culture, and the proliferation of effector cells was analyzed by a flow cytometer.

COc1ccc(/C=C/C(=O)Nc2ccccc2C(=O)O)cc1OC [cinnamoyl anthranilic acid]
recipients overcame acute rejection [1]: 92%
recipients with long-term survival with a state of induced immune tolerance [1]: 42%
blood concentration at 48 h ([2]; 48 h): difficult to be detected
plasma half-life [2]: 5 to 8.6 h
time to peak plasma concentration [2]: 2 to 3 h
tissue distribution [2]: bronchial and lung have the highest concentration
recipients overcame acute rejection [3]: 100%
recipients with long-term survival with a state of induced immune tolerance [3]: 50%
effect on proliferation of CD4 effector T cells (CFSE) ([4]; 37.5 μM to 9.35 μM): dose-dependent inhibitory effect
effect on activated CD4 effector cells at high concentrations ([4]; 150 μM and 75 μM): directly kill activated CD4 effector cells
effect on proliferation of CD4 effector cells at low concentration ([4]; below 4.7 μM): did not show the inhibitory effect
